Paper PMC4499129, “DNA3′pp5′G de-capping activity of aprataxin: effect of cap nucleoside analogs and structural basis for guanosine recognition” (Nucleic Acids Research, 2015)

What was measured:
Aprataxin-(33-232) = target: T1, Aprataxin-(33-232) (Schizosaccharomyces pombe, UniProt O74859); experiment: X-ray crystal structure, […] Å; assay type: binding; settings: co-crystallised with 5 mM GMP, pH 8.0, active site of protomer B
T1 construct: gene hnt3; catalytic domain aa 33-232 (HIT domain + zinc finger), His10Smt3 tag cut by Ulp1, tag-free; E. coli BL21(DE3); two protomers per asymmetric unit
T1 sequence (O74859 33-232): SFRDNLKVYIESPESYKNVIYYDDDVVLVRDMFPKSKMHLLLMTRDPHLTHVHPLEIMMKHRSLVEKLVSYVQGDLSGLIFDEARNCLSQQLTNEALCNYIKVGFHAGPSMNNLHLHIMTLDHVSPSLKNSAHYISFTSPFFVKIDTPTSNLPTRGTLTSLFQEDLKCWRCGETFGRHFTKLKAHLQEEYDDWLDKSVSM

[1] = target: T2, aprataxin-(33-232), catalytic domain (HIT + Zn finger) (Schizosaccharomyces pombe, UniProt O74859 33-232); experiment: X-ray crystallography (2.25 A, P321); Zn2+, guanosine in active site; complementary 3'-PO4 strand … was in the mix but not in the crystal; Crystallization: aprataxin-(33-232) with 5 mM guanosine and 1.2 mM of each 10-mer, mixed with 15% PEG-3350, 0.15 M magnesium acetate; pH and temperature not given in the material; settings: protein: recombinant; chain copies: 2; two copies of the same strand; blunt 10-nt duplex, 8/10 mismatches, only terminal G:C pairs canonical
T2 sequence: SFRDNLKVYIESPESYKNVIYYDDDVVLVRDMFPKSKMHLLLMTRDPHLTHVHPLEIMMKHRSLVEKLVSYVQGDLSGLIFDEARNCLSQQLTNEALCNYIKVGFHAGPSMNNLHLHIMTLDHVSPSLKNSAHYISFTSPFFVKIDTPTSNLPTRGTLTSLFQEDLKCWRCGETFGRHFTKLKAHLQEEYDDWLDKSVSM

Question: With `Nc1nc2c(ncn2[C@@H]2O[C@H](CO)[C@@H](O)[C@H]2O)c(=O)[nH]1` [guanosine] as the molecule, how does the “X-ray crystal structure, 1.5 Å” value (Aprataxin-(33-232); anti conformation crystal, grown with 5 mM GMP (no guanosine added), guanosine modelled in active site of protomer A, anti conformatio) read?
Answer: Difference density allowed placement of guanosine in the active site of the A protomer

Question: Which “X-ray crystal structure, 1.5 Å” value (Aprataxin-(33-232); anti conformation) does the source give for `Nc1nc2c(ncn2[C@@H]2O[C@H](COP(=O)(O)O)[C@@H](O)[C@H]2O)c(=O)[nH]1` [GMP] here?
Answer: The refined model included guanosine in the active site of the A protomer and GMP

B1: 10-mer self-paired mismatched duplex HO-GAATCATAAC-OH (dsDNA)
DNA 1: GAATCATAAC
DNA 2: GAATCATAAC
modifications: 5'-OH and 3'-OH ends
Question: Does B1 bind [1]?
Answer: binds
